Data: patent publication US20120323164A1, “PHOTODYNAMIC THERAPY WITH PHTHALOCYANINES AND RADICAL SOURCES” (Case Western Reserve University, priority 2011, published 2012)
Values joined by “and” are separate entries in the source; they are usually repeats but may differ in a detail not shown here. Equal values may be shown once.

Key:
[1] = Photodecomposition of Al and Si phthalocyanines in toluene in the presence of squalene under white light; assay type: physicochemical; settings: toluene ~9 μM, squalene 1:1000 mole ratio, white light 1.2 kJ/s/m^2, air
Protocol: The beam intensity was checked before each measurement.
Solutions for the photodecomposition experiments were prepared as follows.

[2] = Photodecomposition of phthalocyanines in toluene under white light, no added radical source; settings: for photostability (in words): white light, toluene
Protocol: The distance between the cuvette face and the lamp filament was 30 cm. Determination of the beam intensity at the cuvette face was made with a powermeter (Powermax, pm10, Coherent, Santa Clara, Calif.). The beam intensity was checked before each measurement.
Solutions for the photodecomposition experiments were prepared as follows. […] This assumption was justified on the basis that all of the silicon phthalocyanines studied contained simple, unsubstituted phthalocyanine rings. The extinction coefficients of the aluminum phthalocyanines were assumed to be 2.3×10^5, the extinction coefficient of AlPcOSi(CH3)2(CH2)3N(CH3)2, Pc 1.
The absorbance of the Q band of the solution, A, was determined with a spectrophotometer (Lambda 25, Perkin Elmer, Shelton, Conn.; fused silica cuvettes, 1.00 cm, 3.5 mL, Fisher Scientific). From A, ε, the cuvette path length, b, and Beer's law, the concentration of the solution, c, was determined. The solution was then diluted with toluene to a concentration of 9.2 μM. To verify that this was the concentration of the solution, its absorbance was measured again.
In a typical determination, the solution (3.00 mL) was placed in a cuvette (1.00 cm, 3.5 mL, Fisher Scientific, Pittsburgh, Pa.) and its absorbance was measured with the spectrometer (Lambda 25) before irradiation and at 2, 4, 6 and 8 h.
where A0 is the absorbance of the solution at time 0, and At is the absorbance at time t.

[3] = time 2 h, radiation 86 kJ/mol × 10^−6
[4] = time 4 h, radiation 172 kJ/mol × 10^−6
[5] = time 6 h, radiation 258 kJ/mol × 10^−6
[6] = time 8 h, radiation 344 kJ/mol × 10^−6
[7] = time 0 h, toluene ~9 μM, no added alkene, white light 1.2 kJ/s/m^2
[8] = time 2 h, radiation 86 kJ/mol × 10^−6, toluene ~9 μM, no added alkene, white light 1.2 kJ/s/m^2
[9] = time 4 h, radiation 172 kJ/mol × 10^−6, toluene ~9 μM, no added alkene, white light 1.2 kJ/s/m^2
[10] = time 6 h, radiation 258 kJ/mol × 10^−6, toluene ~9 μM, no added alkene, white light 1.2 kJ/s/m^2
[11] = time 8 h, radiation 344 kJ/mol × 10^−6, toluene ~9 μM, no added alkene, white light 1.2 kJ/s/m^2

| decomp (%) ([1]; time 0 h) | decomp (%) [1, 3] [%] | decomp (%) [1, 4] [%] | decomp (%) [1, 5] [%] | decomp (%) [1, 6] [%] | Compound | decomp (%) [2, 7] [%] | decomp (%) [2, 8] | decomp (%) [2, 9] | decomp (%) [2, 10] [%] | decomp (%) [2, 11] [%] | further results |
| --- | --- | --- | --- | --- | --- | --- | --- | --- | --- | --- | --- |
| 0 | 12 | 23 | 34 | 44 | C[Si](C)(CCCI)O[Si]1(O)n2c3c4ccccc4c2N=C2N=C(N=c4c5ccccc5c(n41)=NC1=NC(=N3)c3ccccc31)c1ccccc12 (centres unmarked) [Pc 58, SiPc[OSiMe2(CH2)3I](OH)] |  |  |  |  |  |  |
|  |  |  |  |  | CCCCCCCCCCCCCCCCCC(=O)O.CCCCCCCCCCCCCCCCCC(=O)O.CN(C)CCC[Si](C)(C)O[Si]1(O[Si](C)(C)CCCN(C)C)n2c3c4ccccc4c2N=C2N=C(N=c4c5ccccc5c(n41)=NC1=NC(=N3)c3ccccc31)c1ccccc12 [Pc 287, SiPc[OSi(CH3)2(CH2)3NH(CH3)2]2^2+[OC(O)(CH2)17CH3]2^−] | 0 | 19% | 20% | 21 | 21 |  |
| 0 | 8 | 16 | 23 | 30 | CCC[Si](CCC)(CCC)[O][Al]1[n]2c3c4ccccc4c2N=C2N=C(N=c4c5ccccc5c([n]41)=NC1=NC(=N3)c3ccccc31)c1ccccc12 [Pc 285, AlPcOSiPr3] |  |  |  |  |  |  |
| 0 | 16 | 26 | 34 | 42 | CCCCCC[Si](CCCCCC)(CCCCCC)O[Si]1(O)n2c3c4ccccc4c2N=C2N=C(N=c4c5ccccc5c(n41)=NC1=NC(=N3)c3ccccc31)c1ccccc12 (centres unmarked) [Pc 252, SiPc(OSiHx3)(OH)] |  |  |  |  |  |  |
|  |  |  |  |  | COCCC[Si](C)(C)O[Si]1(O[Si](C)(C)CCCOC)n2c3c4ccccc4c2N=C2N=C(N=c4c5ccccc5c(n41)=NC1=NC(=N3)c3ccccc31)c1ccccc12 [Pc 92, SiPc[OSi(CH3)2(CH2)3OCH3]2] | 0 | 1% | 1% | 1 | 1 |  |
|  |  |  |  |  | C=CC[Si](C)(C)O[Si]1(O[Si](C)(C)CC=C)n2c3c4ccccc4c2N=C2N=C(N=c4c5ccccc5c(n41)=NC1=NC(=N3)c3ccccc31)c1ccccc12 [Pc 271, SiPc[OSi(CH3)2CH2CH═CH2]2] | 0 | 6% | 10% | 14 | 16 |  |
| 0 | 10 | 15 | 21 | 26 | CCCCCCCC[Si](CCCCCCCC)(CCCCCCCC)O[Si]1(O[Si](CCCCCCCC)(CCCCCCCC)CCCCCCCC)n2c3c4ccccc4c2N=C2N=C(N=c4c5ccccc5c(n41)=NC1=NC(=N3)c3ccccc31)c1ccccc12 [Pc 308, SiPc(OSiOct3)2] |  |  |  |  |  |  |
| 0 | 24 | 44 | 63 | 77 | C[SiH2]O[Si]1(O[SiH2]C)n2c3c4ccccc4c2N=C2N=C(N=c4c5ccccc5c(n41)=NC1=NC(=N3)c3ccccc31)c1ccccc12 (centres unmarked) [Pc 283, SiPc(OSiH2Me)2] |  |  |  |  |  |  |
|  |  |  |  |  | SiPc[OC(O)(CH2)3(CH2CH═CH)3(CH2)4CH3]2 [Pc 298] |  |  |  |  |  | decomp (%) [2]: 0 12 21 27 33%; decomposition rate relative to bis(α-linolenoxy)silicon phthalocyanine [2]: approximately twice as fast |
| 0 | 10 | 17 | 23 | 29 | CCCCCC[Si](CCCCCC)(CCCCCC)[O][Al]1[n]2c3c4ccccc4c2N=c2c4ccccc4c([n]21)=NC1=NC(=NC2=NC(=N3)c3ccccc32)c2ccccc21 [Pc 286, AlPcOSiHx3] |  |  |  |  |  |  |
|  |  |  |  |  | C=CCCCC[Si](C)(C)O[Si]1(O[Si](C)(C)CCCCC=C)n2c3c4ccccc4c2N=C2N=C(N=c4c5ccccc5c(n41)=NC1=NC(=N3)c3ccccc31)c1ccccc12 [Pc 270, SiPc[OSi(CH3)2(CH2)4CH═CH2]2] | 0 | 1% | 2% | 2 | 3 |  |
| 0 | 11 | 19 | 27 | 36 | C[Si](C)(C)O[Si]1(O[Si](C)(C)C)n2c3c4ccccc4c2N=C2N=C(N=c4c5ccccc5c(n41)=NC1=NC(=N3)c3ccccc31)c1ccccc12 [Pc 280, SiPc(OSiMe3)2] |  |  |  |  |  |  |
|  |  |  |  |  | SiPc[OC(O)(CH2)6(CH2CH═CH)3CH2CH3]z [Pc 297] |  |  |  |  |  | decomp (%) [2]: 0 3 5 6 9% |
|  |  |  |  |  | C[Si](C)(CCCN(c1ccccc1)c1ccccc1)O[Si]1(O[Si](C)(C)CCCN(c2ccccc2)c2ccccc2)n2c3c4ccccc4c2N=C2N=C(N=c4c5ccccc5c(n41)=NC1=NC(=N3)c3ccccc31)c1ccccc12 [Pc 159, SiPc[OSi(CH3)2(CH2)3N(C6H5)2]2] | 0 | 0% | 0% | 0 | 1 | photostability (in words) ([2]; no added alkene): quite stable under light |
|  |  |  |  |  | AlPcOSi(CH3)2(CH2)3N(CH3)2 [Pc 1] | 0 | 27% | 39% | 46 | 49 | photostability (in words) ([2]; no added alkene): low photostability |
|  |  |  |  |  | CSCCC[Si](C)(C)O[Si]1(O[Si](C)(C)CCCSC)n2c3c4ccccc4c2N=C2N=C(N=c4c5ccccc5c(n41)=NC1=NC(=N3)c3ccccc31)c1ccccc12 [Pc 97, SiPc[OSi(CH3)2(CH2)3SCH3]2] | 0 | 41% | 42% | 43 | 44 |  |
|  |  |  |  |  | CN(C)CCC[Si](C)(C)O[Si]1(O[Si](C)(C)CCCN(C)C)n2c3c4ccccc4c2N=C2N=C(N=c4c5ccccc5c(n41)=NC1=NC(=N3)c3ccccc31)c1ccccc12 [Pc 12, SiPc[OSi(CH3)2(CH2)3N(CH3)2]2] | 0 | 19% and 18% | 20% and 19% | 21 | 21 |  |
|  |  |  |  |  | CC1=C(/C=C/C(C)=C/C=C/C(C)=C/C(=O)O[Si]2(OC(=O)/C=C(C)/C=C/C=C(C)/C=C/C3=C(C)CCCC3(C)C)n3c4c5ccccc5c3N=C3N=C(N=c5c6ccccc6c(n52)=NC2=NC(=N4)c4ccccc42)c2ccccc23)C(C)(C)CCC1 (centres unmarked) [Pc 301, SiPc[OC(O)(CH═C(CH3)CH═CH)2C6H6(CH3)3]2] | 0 | 19% | 25% | 28 | 32 |  |
|  |  |  |  |  | SiPc[OCH2CH═C(CH3)(CH2)2CH═C(CH3)2]2 [Pc 302] | 0 | 19% | 60% | 74 | 81 | stability in the dark ([2]; in the dark): stable in the dark |
|  |  |  |  |  | SiPc[OC(O)(CH2)16CH3]2 [Pc 294] | 0 | 1% | 1% | 1 | 2 |  |
|  |  |  |  |  | CN(C)CCCCCC[Si](C)(C)O[Si]1(O[Si](C)(C)CCCCCCN(C)C)n2c3c4ccccc4c2N=C2N=C(N=c4c5ccccc5c(n41)=NC1=NC(=N3)c3ccccc31)c1ccccc12 [Pc 85, SiPc[OSi(CH3)2(CH2)6N(CH3)2]2] | 0 | 5% | 5% | 5 | 5 |  |
